“Also recorded” adds a separate entry of the source.
Columns and labels:
PC12 cells [1] = assay: Generation of hydrogen peroxide in PC12 cells to which SNAP was added (DCFH, FACS); format: cell-based, rat; settings: for Amounts of generated H2O2 (% log fluorescence of control): n = 3
Protocol: PC12 cells (derived from rats, chromaffin tumor) were cultured and subcultured in a 100 mm dish (made of Corning) coated with polylysine and containing a DMEM medium supplemented with 10% FCS and 5% horse serum (product of Sigma). Briefly, PC12 cells (1×10^6 cells/dish) were seeded in a 100 mm dish coated with polylysine. In order to induce differentiation of the PC12 cells, the cells were grown for 7 days in a DMEM medium containing 5% FCS, 50 ng/ml NGF, and 1% horse serum. The PC12 cells were then peeled off through pipetting and suspended in a suitable medium to prepare a cell suspension. The cell suspension was seeded into each well of a […], polylysine-coated 96-well dish (1×10^4 cells/well). After adhesion of the cells was confirmed, the following procedure was performed.
The thus-adhered PC12 cells were placed in a DMEM medium. To the cells were added 10 μM of SNAP and 2.5 μM of compound A. For control groups, only SNAP was added. Each sample was incubated for 3 hours. Thereafter, a solution of DCFH-DA (Molecular Probes, Inc.) in DMSO (1 mg/413 μl) which had been prepared in advance was added to each PC12-containing sample so that a final concentration of 5 μM was obtained, and the samples were then incubated for 30 minutes. The cells were removed using trypsin-EDTA, and recovered via centrifugation (1,000 rpm×5 min.). The recovered cells were suspended in 50 μl of PBS(-) while being cooled with ice. The amount of intracellular hydrogen peroxide was determined using a flow cytometer; The cell suspension was subjected to FACS (fluorescence-activated cell sorting), and the amount of the fluorescent substance, […], which had been oxidized by peroxides was measured.

PC12 cells [2] = assay: Viability of PC12 cells in the presence of Aβ (MTT method); format: cell-based, rat; settings: for Suppression of neuron death caused by Aβ (in words): Aβ 10 μM, compound 0.1, 1 or 2.5 μM, PC12; for viability at 0.1 µM / viability at 1 µM / viability at 2.5 µM: Rattus norvegicus, PC-12, 48 h, read-out: Viability of cells (% of control)
Protocol: PC12 cells (derived from rats, chromaffin tumor) were cultured and subcultured in a 100 mm dish (made of Corning) coated with polylysine and containing a DMEM medium supplemented with 10% FCS and 5% horse serum (product of Sigma). Briefly, PC12 cells (1×10^6 cells/dish) were seeded in a 100 mm dish coated with polylysine. In order to induce differentiation of the PC12 cells, the cells were grown for 7 days in a DMEM medium containing 5% FCS, 50 ng/ml NGF, and 1% horse serum. The PC12 cells were then peeled off through pipetting and suspended in a suitable medium to prepare a cell suspension. The cell suspension was seeded into each well of a polylysine-coated 96-well dish (1×10^4 cells/well). Subsequently, Aβ (Bachem Feinchmikalien AG) was added so that a final concentration of 10 μM was achieved. Compound A was also added so that a final concentration of 0.1, 1.0, or 2.5 μM was achieved. […] The cells were cultured for 48 hours from the addition of compound A or compound B.
An MTT reagent (3-(4,5-dimethylthiazole-2-yl)-2,5-diphenyl tetrazolium bromide) was added to the thus-treated cells, incubation was performed for 4 hours, and the cells were lysed. The subsequent procedure was performed using a so-called MTT method, which employs colorimetry based on a reduction reaction of the reagent, to thereby obtain the viability of the cells in the suspension (Behl, C. et al., Cell, 77: 817-827, 1994). [drawing 1]

[3] = tested on: glutathione peroxidase-like activities; settings: stated in description of control compound; cited from earlier work
LD50 in mice = settings: mouse, in vivo, oral
From the text: (§1) Toxicity of compound A has been studied by obtaining LD50 values in mice and rats.

LD50 in rats = settings: rat, in vivo
From the text: as §1

mice or rats = assay: Adverse side effects at high dose in mice or rats; format: in vivo

Row | SMILES | Amounts of generated H2O2 (% log fluorescence of control) (PC12 cells [1]; SNAP 10 μM alone) | Increase of generation of hydrogen peroxide over the level without SNAP (PC12 cells [1]; SNAP 10 μM, 3 hours) | Suppression of neuron death caused by Aβ (in words) (PC12 cells [2]) | viability at 0.1 µM (PC12 cells [2]) | viability at 1 µM (PC12 cells [2]) | viability at 2.5 µM (PC12 cells [2]) | Glutathione peroxidase-like activities [3] | Suppression of generation of hydrogen peroxide (in words) (PC12 cells [1]; SNAP 10 μM, compound A 2.5 μM, P≤0.0015) | Amounts of generated H2O2 (% log fluorescence of control) (PC12 cells [1]; SNAP 10 μM, compound A 2.5 μM, P ≤ 0.0015 vs SNAP) | Suppression of generation of hydrogen peroxide induced by Aβ (in words) (PC12 cells [1]; concluding statement) | LD50 (LD50 in mice) | LD50 (LD50 in rats; ip, intraperitoneal) | LD50 (LD50 in rats; oral) | Adverse side effects (mice or rats)
1 | CC(=O)NC(C(=O)O)C(C)(C)SN=O (racemic) [SNAP, Snitroso-N-acetyl-DL-penicillamine, reference compound] | 135.8 ± 5.25 % log fluorescence of control | 1.3-1.4 times |  |  |  |  |  |  |  |  |  |  |  | 
2 | O=c1c2ccccc2sn1-c1ccccc1 [B, 2-phenyl-1,2-benzothiazol-3(2H)-one, reference compound] |  |  | the death rate could not be suppressed | 14 ± 4.5% | 13 ± 1% | 10 ± 5% | having no glutathione peroxidase-like activities |  |  |  |  |  |  | 
3 | O=c1c2ccccc2[se]n1-c1ccccc1 [Compound A, 2-phenyl-1,2-benzisoselenazol-3(2H)-one] |  |  | neuron death suppressed significantly in all cases | 45 ± 2.1% | 59 ± 14.5% | 66 ± 4.5% |  | significantly suppressed; also recorded: satisfactorily suppressed | 45.7 ± 6.03 % log fluorescence of control | significantly suppresses generation of hydrogen peroxide | ≥ 6810 mg/kg | 580 mg/kg | ≥ 6810 mg/kg | no problematic adverse side effects were observed

— US5948800A, “Preventive or therapeutic drug for Alzheimer's disease” (A. Nattermann & Cie. GmbH, priority 1996, dated 1999)
